The values below come from patent publication US5457114A, “Amidinophenylalanine derivatives, a process for the preparation thereof, use thereof and agents containing these as anticoagulants” (Behringwerke Aktiengesellschaft, priority 1991, dated 1995).

For data set [1], the target named is human thrombin (Homo sapiens, UniProt P00734). Kind of data set: Determination of the inhibition constants for thrombin. The note with it: human thrombin 100 pM, 0.1 mM substrate S2238, pH 7.8, 37 degrees C., 10 min preincubation. The class given is biochemical. How it is done:
The inhibition constants (Ki) for the substances were determined by known enzyme kinetic methods. The purity of the human thrombin employed was determined to be 87% by means of active site titration. […] Inhibitor and enzyme were preincubated for 10 minutes, and the reaction was started by adding the chromogenic substrate S2238.
The specificity of the inhibitors for thrombin and trypsin was determined. The specificity is defined as the ratio of the Ki values for trypsin and thrombin (Table II). […] The Ki values were calculated ([…]) from the IC50 value for thrombin and trypsin. The specificities emerged from the ratio of the trypsin and thrombin values.

Data set [2] has as its target T1, Trypsin from bovine pancreas (Bos taurus, UniProt P00760).
T1 construct: from tissue; host or cells: bovine pancreas
T1 sequence (P00760 24-246): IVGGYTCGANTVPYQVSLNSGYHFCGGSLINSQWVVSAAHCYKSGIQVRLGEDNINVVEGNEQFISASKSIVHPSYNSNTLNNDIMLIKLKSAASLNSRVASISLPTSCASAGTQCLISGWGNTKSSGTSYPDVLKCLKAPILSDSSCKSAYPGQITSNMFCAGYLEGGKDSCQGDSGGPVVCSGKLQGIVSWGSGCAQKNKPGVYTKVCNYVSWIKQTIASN
Kind of data set: Determination of the specificity of the inhibitors (trypsin versus thrombin). It counts as biochemical. The note with it: ratio of the Ki values for trypsin and thrombin; Ki calculated from IC50. How it is done: The specificity of the inhibitors for thrombin and trypsin was determined. The specificity is defined as the ratio of the Ki values for trypsin and thrombin (Table II). […] The enzymatic reaction was started by adding the substrate Chromozym TRY (7.1×10^-5 M). The liberation of pNA was measured at 405 nm after one hour. The IC50 values for thrombin were determined in an analogous manner, with the exceptions that human thrombin, buffer (50 mM tris-HCl, 50 mM NaCl, pH 7.8) and 5×10^-5 M S 2238 were used. The Ki values were calculated ([…]) from the IC50 value for thrombin and trypsin. The specificities emerged from the ratio of the trypsin and thrombin values.

The conditions of data set [3]: rat, i.v.
A short description of data set [4]: Enteral administration. The note with it: in vivo.

In the case of `COc1cc2ccc(S(=O)(=O)N[C@@H](CC(=O)O)C(=O)N[C@H](Cc3ccc(C(=N)N)cc3)C(=O)N3CCCCC3)cc2cc1OC` [Dmn-Asp-D-Aph-Pip, 6,7-Dimethoxy-β-naphthalenesulfonyl-L-Asp-D-p-amidinophenylalanyl Piperidide], in data set [1], the affinity, expressed as Ki, was 6 nM. In data set [2], the Specificity thrombin/trypsin is listed as 230. The corresponding values for `COc1cc(C)c(S(=O)(=O)N[C@@H](CC(=O)OC(C)C)C(=O)N[C@H](Cc2ccc(C(=N)N)cc2)C(=O)N2CCCCC2)c(C)c1C` [Mtr-Asp(iPr)-Aph-Pip, Mtr-L-Asp(OiPr)-D-Aph-Pip] are 0.6 nM and 378.

Compound `COc1cc(C)c(S(=O)(=O)N[C@@H](CC(=O)N[C@@H]2O[C@H](C(=O)O)[C@@H](O)[C@H](O)[C@H]2O)C(=O)N[C@H](Cc2ccc(C(=N)N)cc2)C(=O)N2CCCCC2)c(C)c1C` [4-Methoxy-2,3,6-trimethylphenylsulfonyl-L-asparaginyl-N-[β-D-glucopyranosyl)uronic acid]-D-p-amidinophenylalanyl Piperidide] gave a Ki in data set [1] of 0.085 nM. In addition, the Specificity thrombin/trypsin in data set [2] is 4106. In the case of `N=C(N)c1ccc(CC(NC(=O)[C@H](CC(=O)O)NS(=O)(=O)c2ccc3ccccc3c2)C(=O)N2CCCCC2)cc1` (stereo partly drawn) [β-naphthylsulfonyl-L-Asp-D,L-Aph-Pip, β-Naphthylsulfonyl-L-Asp-D,L-Aph-Pip], the LD50 result in data set [3] is “about 120 mg/kg”. Regarding `COc1cc(C)c(S(=O)(=O)N[C@@H](CC(=O)NCCCC(=O)O)C(=O)N[C@H](Cc2ccc(C(=N)N)cc2)C(=O)N2CCCCC2)c(C)c1C` [4-Methoxy-2,3,6-trimethylbenzenesulfonyl-L-aspartic Acid (Gamma-aminobutyric Acid)-D-Aph-piperidide], affinity in data set [1] was put at a Ki of 0.8 nM. Besides, in data set [2], the Specificity thrombin/trypsin is listed as 1810. For the compound `COc1cc(C)c(S(=O)(=O)NC(CC(=O)OC(C)(C)C)C(=O)NC(Cc2ccc(C(=N)N)cc2)C(=O)N2CCCCC2)c(C)c1C` [Mtr-Asp(tBu)-Aph-Pip, Mtr-L-Asp(OtBu)-D-Aph-Pip], affinity in data set [1] was put at a Ki of 0.9 nM. In data set [2], the Specificity thrombin/trypsin is listed as 297. In data set [1], “Beta-Naphthylsulfonyl-L-aspartic Acid D-p-amidinophenyl-alanyl-piperidide [Nas-Asp-D-Aph-Pip]” registered an inhibition constant (Ki) of 10 nM. Also, in data set [2], the Specificity thrombin/trypsin is 7.

For “4-Methoxy-2,3,6-trimethylphenylsulfonyl-L-Cys(SO3 H)-D-p-amidinophenylalanyl Piperidide [Mtr-L-Cys (SO3 H)-D-Aph-Pip]”, in data set [1], the affinity corresponds to a Ki of 0.6 nM. In addition, the Specificity thrombin/trypsin in data set [2] is on record as 150. The corresponding values for `N=C(N)c1ccc(C[C@H](NC(=O)[C@H](CC(N)=O)NS(=O)(=O)c2ccc3ccccc3c2)C(=O)N2CCCCC2)cc1` [Nas-Asn-Aph-Pip] are 6 nM and 48.

For the compound `N=C(N)c1ccc(CC(NC(=O)CNS(=O)(=O)c2ccc3ccccc3c2)C(=O)N2CCCCC2)cc1` (stereo not drawn) [Napap, beta-naphthylsulfonyl-glycyl-R,S-4-amidinophenylalanyl piperidide, reference compound], the Specificity thrombin/trypsin in data set [2] is listed as 24.

Turning to `COc1cc(C)c(S(=O)(=O)N[C@@H](CC(=O)O)C(=O)N[C@H](Cc2ccc(C(=N)N)cc2)C(=O)N2CCCCC2)c(C)c1C` [Mtr-Asp-D-Aph-Pip, 4-Methoxy-2,3,6-trimethylphenylsulfonyl-L-Asp-D-p-amidinophenylalanyl Piperidide], the affinity in data set [1], expressed as Ki, was 1.5 nM. The Specificity thrombin/trypsin in data set [2] is recorded as 125. In addition, the “possibility of enteral administration” value in data set [4] was “possibility of enteral administration”.

As a reminder, the Ki is a measure of affinity in units of concentration, obtained from inhibition or displacement. A high value points to weaker binding.
